Assay results taken from Sander's compilation of Henry's law constants.

What was measured:
[1] = Henry solubility constant Hcp at 293 K (mol/(m3 Pa))
[2] = Henry solubility constant Hcp at 298.15 K (mol/(m3 Pa))
[3] = Henry solubility constant Hcp at 310 K (mol/(m3 Pa))
[4] = reference: Chiang et al. (1998)
[5] = reference: Pearson and McConnell (1975)
[6] = reference: Yurteri et al. (1987)
[7] = reference: Bissonette et al. (1990)
[8] = reference: Gossett et al. (1985)
[9] = reference: Hunter-Smith et al. (1983)
[10] = reference: Lincoff and Gossett (1984)
[11] = reference: Munz and Roberts (1987)
[12] = reference: Robbins et al. (1993)
[13] = reference: Vane and Giroux (2000)
[14] = reference: Warner et al. (1980)
[15] = reference: Sheikheldin et al. (2001)
[16] = reference: Tancrède and Yanagisawa (1990)

With `CC(Cl)(Cl)Cl` [1,1,1-trichloroethane] the “Henry solubility constant Hcp at 293 K” value [1, 4] was 0.00071, the “Henry solubility constant Hcp at 293 K” value [1, 5] was 0.00029 and the “Henry solubility constant Hcp at 293 K” value [1, 6] was 0.00063. For the same molecule, the “Henry solubility constant Hcp” value [2, 7] was 0.00051, the “Henry solubility constant Hcp” value ([2]; reference: Chen et al. (2012)) was 0.00054 and the “Henry solubility constant Hcp” value ([2]; reference: Ervin et al. (1980)) was 0.00027. For the same molecule, the “Henry solubility constant Hcp” value ([2]; reference: Gossett (1987)) was 0.00059, the “Henry solubility constant Hcp” value [2, 8] was 0.00057 and the “Henry solubility constant Hcp” value [2, 9] was 0.00076. For the same molecule, the “Henry solubility constant Hcp” value [2, 10] was 0.00059, the “Henry solubility constant Hcp” value [2, 11] was 0.00058 and the “Henry solubility constant Hcp” value [2, 12] was 0.00055. The “Henry solubility constant Hcp” value ([2]; reference: Turner et al. (1996)) was 0.00048, the “Henry solubility constant Hcp” value [2, 13] was 0.00062 and the “Henry solubility constant Hcp” value [2, 14] was 0.002.

For `CCc1cccc(C)c1N(C(=O)CCl)C(C)COC` (stereo not given) [metolachlor], the “Henry solubility constant Hcp at 293 K” value ([1]; reference: Rice et al. (1997b)) was 130, the “Henry solubility constant Hcp” value ([2]; reference: Feigenbrugel et al. (2004a)) was 210 and the “Henry solubility constant Hcp” value ([2]; reference: Lau et al. (1995)) was 570.

In the case of `c1ccc2c(c1)Cc1ccccc1-2` [2,3-benzindene], the “Henry solubility constant Hcp at 293 K” value ([1]; reference: De Maagd et al. (1998)) is reported as 0.15, the “Henry solubility constant Hcp” value ([2]; reference: Bamford et al. (1999b)) is reported as 0.079 and the “Henry solubility constant Hcp” value [2, 14] is reported as 0.084.

With `Oc1ccc(Cl)cc1Cl` [2,4-dichlorophenol] the “Henry solubility constant Hcp at 293 K” value [1, 15] was 3.4 and the “Henry solubility constant Hcp” value ([2]; reference: Tabai et al. (1997)) was 6.6.

For `FC(Br)C(F)(F)F` (stereo not given) [1-bromo-1,2,2,2-tetrafluoroethane], the “Henry solubility constant Hcp at 310 K” value ([3]; reference: Edelist et al. (1964)) was 0.00012.

With `CN(C)N=O` [N-nitrosodimethylamine] the “Henry solubility constant Hcp at 293 K” value ([1]; reference: Haruta et al. (2011)) was 4.1, the “Henry solubility constant Hcp” value ([2]; reference: Klein (1982)) was 6.1 and the “Henry solubility constant Hcp” value ([2]; reference: Thompson et al. (2018)) was 0.29.

For `CCOCCO` [2-ethoxyethanol], the “Henry solubility constant Hcp at 310 K” value ([3]; reference: Johanson and Dynésius (1988)) was 8.9.

In the case of `ClC(Cl)=C(Cl)Cl` [tetrachloroethene], the “Henry solubility constant Hcp at 293 K” value [1, 4] is reported as 0.00062, the “Henry solubility constant Hcp at 293 K” value [1, 5] is reported as 0.0005 and the “Henry solubility constant Hcp at 293 K” value [1, 6] is reported as 0.00075. For the same molecule, the “Henry solubility constant Hcp” value [2, 7] was 0.00062, the “Henry solubility constant Hcp” value ([2]; reference: Chen et al. (2012)) was 0.00062 and the “Henry solubility constant Hcp” value ([2]; reference: Ervin et al. (1980)) was 0.00057. The “Henry solubility constant Hcp” value ([2]; reference: Gossett (1980)) was 0.0011, the “Henry solubility constant Hcp” value ([2]; reference: Gossett (1987)) was 0.00056 and the “Henry solubility constant Hcp” value [2, 8] was 0.00065. For the same molecule, the “Henry solubility constant Hcp” value ([2]; reference: Knauss et al. (2000)) was 0.00048, the “Henry solubility constant Hcp” value [2, 10] was 0.00057 and the “Henry solubility constant Hcp” value [2, 11] was 0.00054. For the same molecule, the “Henry solubility constant Hcp” value ([2]; reference: Park et al. (1997)) was 0.00055, the “Henry solubility constant Hcp” value ([2]; reference: Peng and Wan (1997)) was 0.00061 and the “Henry solubility constant Hcp” value ([2]; reference: Peng and Wan (1998)) was 0.00078. For the same molecule, the “Henry solubility constant Hcp” value [2, 12] was 0.00058, the “Henry solubility constant Hcp” value ([2]; reference: Shimotori and Arnold (2003)) was 0.00058 and the “Henry solubility constant Hcp” value [2, 16] was 0.00059. For the same molecule, the “Henry solubility constant Hcp” value [2, 13] was 0.0006 and the “Henry solubility constant Hcp” value [2, 14] was 0.00034.

With `CCSSCC` [diethyl disulfide] the “Henry solubility constant Hcp at 293 K” value ([1]; reference: Vitenberg et al. (1975)) was 0.0047 and the “Henry solubility constant Hcp” value ([2]; reference: Schuhfried et al. (2011)) was 0.0037.

For `OCl` [hypochlorous acid], the “Henry solubility constant Hcp at 293 K” value ([1]; reference: Blatchley et al. (1992)) was 9.1, the “Henry solubility constant Hcp at 293 K” value ([1]; reference: McCoy et al. (1990)) was 9 and the “Henry solubility constant Hcp” value ([2]; reference: Hanson and Ravishankara (1991)) was 4.7. For the same molecule, the “Henry solubility constant Hcp” value ([2]; reference: Holzwarth et al. (1984)) was 6, the “Henry solubility constant Hcp” value ([2]; reference: Imagawa (1950)) was 12 and the “Henry solubility constant Hcp” value ([2]; reference: Ourisson and Kastner (1939)) was 6.4.

For `ClC(Cl)(Cl)Cl` [tetrachloromethane], the “Henry solubility constant Hcp at 293 K” value [1, 4] was 0.0004, the “Henry solubility constant Hcp at 293 K” value [1, 5] was 0.00045 and the “Henry solubility constant Hcp at 293 K” value [1, 6] was 0.00043. For the same molecule, the “Henry solubility constant Hcp” value ([2]; reference: Balls (1980)) was 0.00032, the “Henry solubility constant Hcp” value [2, 7] was 0.00028 and the “Henry solubility constant Hcp” value ([2]; reference: Bullister and Wisegarver (1998)) was 0.00029. For the same molecule, the “Henry solubility constant Hcp” value ([2]; reference: Chen et al. (2012)) was 0.0003, the “Henry solubility constant Hcp” value ([2]; reference: Gossett (1987)) was 0.00033 and the “Henry solubility constant Hcp” value ([2]; reference: Hartkopf and Karger (1973)) was 0.00037. The “Henry solubility constant Hcp” value [2, 9] was 0.00041, the “Henry solubility constant Hcp” value ([2]; reference: Lutsyk et al. (2005)) was 0.00034 and the “Henry solubility constant Hcp” value ([2]; reference: Munz and Roberts (1986)) was 0.00042. For the same molecule, the “Henry solubility constant Hcp” value [2, 11] was 0.00033, the “Henry solubility constant Hcp” value ([2]; reference: Park et al. (1997)) was 0.00039 and the “Henry solubility constant Hcp” value [2, 16] was 0.00034. For the same molecule, the “Henry solubility constant Hcp” value [2, 14] was 0.00033.

With `CC#N` [ethanenitrile] the “Henry solubility constant Hcp at 293 K” value ([1]; reference: Yu (1992)) was 0.082, the “Henry solubility constant Hcp” value ([2]; reference: Bebahani et al. (2002)) was 0.49 and the “Henry solubility constant Hcp” value ([2]; reference: Benkelberg et al. (1995)) was 0.53. For the same molecule, the “Henry solubility constant Hcp” value ([2]; reference: Hamm et al. (1984)) was 0.53, the “Henry solubility constant Hcp” value ([2]; reference: Ji and Evans (2007)) was 0.52 and the “Henry solubility constant Hcp” value ([2]; reference: Snider and Dawson (1985)) was 0.48.

With `Cc1cccc(O)c1C` [1-hydroxy-2,3-dimethylbenzene] the “Henry solubility constant Hcp at 293 K” value [1, 15] was 9.3 and the “Henry solubility constant Hcp” value ([2]; reference: Dohnal and Fenclová (1995)) was 10.
